Non-standard residues stand in square brackets, D forms with d. Residues, ends and D or L forms follow the SMILES beside them. No end group written: not given here. Hyp = O=C(O)[C@@H]1C[C@@H](O)CN1; 2Thi = N[C@@H](Cc1cccs1)C(=O)O; d2Thi = N[C@H](Cc1cccs1)C(=O)O

Here are results for 18 compounds from US4801613A, “Bradykinin antagonist peptides” (Nova Technology Limited Partnership, priority 1987, dated 1989).

In one test the test system is isolated rat uterus. It counts as cell-based.
Details: not given
As to the method: (§1) The bradykinin antagonists were assayed on isolated rat uterus in natural or induced estrus and on guinea pig ileum, according to the commonly accepted assay methods for bradykinin and related kinins as described by Trautschold (Handbook of Expt. Pharmacol. Vol. 25, Springer Verlag, pp 53-55, 1970) for inhibition of the myotropic activity of bradykinin. The inhibition potencies, as determined according to the commonly accepted manner described by Schild for antagonists of biologically active compounds (Br. J. Pharmacol. 2:189, 1947), are determined on isolated rat uterus (RUT) and isolated guinea pig ileum (GPI). In the assays, a dose-response curve is determined for the reference substance bradykinin. The dose of bradykinin which produced a half maximal contraction of tissue is the ED50 dose. An amount of bradykinin equivalent to twice the ED50 dose is administered to the tissue 30 seconds after the start of incubation of the tissue with a dose of antagonist. Doses of antagonist are increased in this protocol until pre-incubation with a dose of antagonist reduces the contraction in response to the double ED50 dose of bradykinin to response of a single ED50 dose of bradykinin. The pA2 value represents the negative logarithm of the molar concentration of antagonist necessary to reduce the response of a double ED50 dose of bradykinin to that of an ED50 dose. One unit of pA2 value represents an order of magnitude change in potency. For comparison, the negative log of the dose of BK, the dose which causes half maximal contraction of the tissues, is commonly known as the pD2 value. The pD2 value for bradykinin is 7.9 on the rat uterus and 7.4 on the guinea pig ileum.
As for `N=C(N)NCCC[C@H](NC(=O)[C@H](Cc1cccs1)NC(=O)[C@@H](Cc1cccs1)NC(=O)[C@H](CO)NC(=O)[C@H](Cc1cccs1)NC(=O)CNC(=O)[C@@H]1CCCN1C(=O)[C@@H]1CCCN1C(=O)[C@@H](N)CCCNC(=N)N)C(=O)O` [Example 7, Arg-Pro-Pro-Gly-Thi-Ser-DThi-Thi-Arg] (H-RPPG[2Thi]S[d2Thi][2Thi]R-OH), the pA2/RUT was 4.2.

For `N=C(N)NCCC[C@@H](N)C(=O)N[C@@H](CCCNC(=N)N)C(=O)N1CCC[C@H]1C(=O)N1CCC[C@@H]1C(=O)NCC(=O)N[C@@H](Cc1ccccc1)C(=O)N[C@@H](CO)C(=O)N[C@H](Cc1ccccc1)C(=O)N[C@@H](Cc1ccccc1)C(=O)N[C@@H](CCCNC(=N)N)C(=O)O` [Example 11, DArg-Arg-Pro-DPro-Gly-Phe-Ser-DPhe-Phe-Arg], the “RUT pA2” value amounted to 4.6 and the pA2/RUT was 4.0.

`N=C(N)NCCC[C@H](NC(=O)[C@H](Cc1cccs1)NC(=O)[C@@H](Cc1ccccc1)NC(=O)[C@H](CO)NC(=O)[C@H](Cc1cccs1)NC(=O)CNC(=O)[C@@H]1CCCN1C(=O)[C@@H]1CCCN1C(=O)[C@H](CCCNC(=N)N)NC(=O)[C@H](CCCCN)NC(=O)[C@@H](N)CCCCN)C(=O)O` [Example 14, Lys-Lys-Arg-Pro-Pro-Gly-Thi-Ser-DPhe-Thi-Arg] (H-KKRPPG[2Thi]S[dF][2Thi]R-OH): the pA2/RUT turned out to be 6.0.

`N=C(N)NCCC[C@@H](N)C(=O)N[C@@H](CCCNC(=N)N)C(=O)N1CCC[C@H]1C(=O)N1CCC[C@@H]1C(=O)NCC(=O)N[C@@H](Cc1cccs1)C(=O)N[C@@H](CO)C(=O)N[C@H](Cc1ccccc1)C(=O)N[C@@H](Cc1cccs1)C(=O)N[C@@H](CCCNC(=N)N)C(=O)O` [Example 16, DArg-Arg-Pro-DPro-Gly-Thi-Ser-DPhe-Thi-Arg] (H-[dR]RP[dP]G[2Thi]S[dF][2Thi]R-OH): the pA2/RUT is listed as 5.2.

On to `N=C(N)NCCC[C@H](NC(=O)[C@H](Cc1cccs1)NC(=O)[C@@H](Cc1ccccc1)NC(=O)[C@H](CO)NC(=O)[C@H](Cc1cccs1)NC(=O)CNC(=O)[C@@H]1CCCN1C(=O)[C@@H]1C[C@@H](O)CN1C(=O)[C@@H](N)CCCNC(=N)N)C(=O)O` [Example 18, Arg-Hyp-Pro-Gly-Thi-Ser-DPhe-Thi-Arg] (H-R[Hyp]PG[2Thi]S[dF][2Thi]R-OH), for which the pA2/RUT is listed as 5.6.

On to `N=C(N)NCCC[C@H](NC(=O)[C@H](Cc1cccs1)NC(=O)[C@@H](Cc1ccccc1)NC(=O)[C@H](CO)NC(=O)[C@H](Cc1cccs1)NC(=O)CNC(=O)[C@@H]1C[C@@H](O)CN1C(=O)[C@@H]1CCCN1C(=O)[C@@H](N)CCCNC(=N)N)C(=O)O` [Example 20, Arg-Pro-Hyp-Gly-Thi-Ser-DPhe-Thi-Arg] (H-RP[Hyp]G[2Thi]S[dF][2Thi]R-OH), for which the pA2/RUT was 7.0.

Regarding `N=C(N)NCCC[C@@H](N)C(=O)N[C@@H](CCCNC(=N)N)C(=O)N1CCC[C@H]1C(=O)N1C[C@H](O)C[C@H]1C(=O)NCC(=O)N[C@@H](Cc1cccs1)C(=O)N[C@@H](CO)C(=O)N[C@H](Cc1ccccc1)C(=O)N[C@@H](Cc1cccs1)C(=O)N[C@@H](CCCNC(=N)N)C(=O)O` [Example 21, DArg-Arg-Pro-Hyp-Gly-Thi-Ser-DPhe-Thi-Arg] (H-[dR]RP[Hyp]G[2Thi]S[dF][2Thi]R-OH), the pA2/RUT is 7.2.

The compound `N=C(N)NCCC[C@H](NC(=O)[C@H](Cc1cccs1)NC(=O)[C@@H](Cc1ccccc1)NC(=O)[C@H](CO)NC(=O)[C@H](Cc1cccs1)NC(=O)CNC(=O)[C@@H]1C[C@@H](O)CN1C(=O)[C@@H]1C[C@@H](O)CN1C(=O)[C@@H](N)CCCNC(=N)N)C(=O)O` [Example 22, Arg-Hyp-Hyp-Gly-Thi-Ser-DPhe-Thi-Arg] (H-R[Hyp][Hyp]G[2Thi]S[dF][2Thi]R-OH) registered a pA2/RUT of 6.7.

In turn, `N=C(N)NCCC[C@@H](N)C(=O)N[C@@H](CCCNC(=N)N)C(=O)N1C[C@H](O)C[C@H]1C(=O)N1CCC[C@H]1C(=O)NCC(=O)N[C@@H](Cc1cccs1)C(=O)N[C@@H](CO)C(=O)N[C@H](Cc1ccccc1)C(=O)N[C@@H](Cc1cccs1)C(=O)N[C@@H](CCCNC(=N)N)C(=O)O` [Example 64, DArg-Arg-Hyp-Pro-Gly-Thi-Ser-DPhe-Thi-Arg] (H-[dR]R[Hyp]PG[2Thi]S[dF][2Thi]R-OH) came in with a pA2/RUT of 5.7.

In turn, `N=C(N)NCCC[C@@H](N)C(=O)N[C@@H](CCCNC(=N)N)C(=O)N1C[C@H](O)C[C@H]1C(=O)N1C[C@H](O)C[C@H]1C(=O)NCC(=O)N[C@@H](Cc1cccs1)C(=O)N[C@@H](CO)C(=O)N[C@H](Cc1ccccc1)C(=O)N[C@@H](Cc1cccs1)C(=O)N[C@@H](CCCNC(=N)N)C(=O)O` [Example 65, DArg-Arg-Hyp-Hyp-Gly-Thi-Ser-DPhe-Thi-Arg] (H-[dR]R[Hyp][Hyp]G[2Thi]S[dF][2Thi]R-OH) showed a pA2/RUT of 7.1.

Regarding `N=C(N)NCCC[C@H](NC(=O)[C@H](Cc1ccccc1)NC(=O)[C@@H](Cc1ccccc1)NC(=O)[C@H](CO)NC(=O)[C@H](Cc1ccccc1)NC(=O)CNC(=O)[C@@H]1CCCN1C(=O)[C@@H]1C[C@@H](O)CN1C(=O)[C@H](CCCNC(=N)N)NC(=O)[C@H](CCCCN)NC(=O)[C@@H](N)CCCCN)C(=O)O` [Example 72, Lys-Lys-Arg-Hyp-Pro-Gly-Phe-Ser-DPhe-Phe-Arg] (H-KKR[Hyp]PGFS[dF]FR-OH), the pA2/RUT worked out at 5.6.

In the case of `N=C(N)NCCC[C@H](NC(=O)[C@H](Cc1cccs1)NC(=O)[C@@H](Cc1ccccc1)NC(=O)[C@H](CO)NC(=O)[C@H](Cc1cccs1)NC(=O)CNC(=O)[C@@H]1C[C@@H](O)CN1C(=O)[C@@H]1CCCN1C(=O)[C@H](CCCNC(=N)N)NC(=O)[C@H](CCCCN)NC(=O)[C@@H](N)CCCCN)C(=O)O` [Example 77, Lys-Lys-Arg-Pro-Hyp-Gly-Thi-Ser-DPhe-Thi-Arg] (H-KKRP[Hyp]G[2Thi]S[dF][2Thi]R-OH), the pA2/RUT was determined as 6.7.

Still in this test, the particulars now being: isolated rat uterus; vs double ED50 dose of bradykinin; Schild.
As to “Arg-Hyp-Hyp-Gly-Thi-DPhe-CDF-Thi-Arg [Example 23]”, the pA2/RUT was determined as 6.5.

The compound “Arg-Pro-Pro-Gly-Thi-Ser-DPal-Thi-Arg [Example 8]” showed a pA2/RUT of 4.2.

Take “KKR[Hyp]G[2Thi]S[dF][2Thi]R [Example 19]”: the pA2/RUT was determined as 5.8.

The next test concerns isolated guinea pig ileum. It counts as cell-based.
Details: not given
On the procedure: as §1
In each case, as shown, the BK-related antagonists inhibited contractions produced by BK-related agonists, but had no effect on the non-kinin myotropic peptide substances. The inhibition potencies are listed as pA2 values as described above.
The compound `N=C(N)NCCC[C@H](NC(=O)[C@H](Cc1ccccc1)NC(=O)[C@@H](Cc1cccs1)NC(=O)[C@H](CO)NC(=O)[C@H](Cc1ccccc1)NC(=O)CNC(=O)[C@@H]1CCCN1C(=O)[C@@H]1CCCN1C(=O)[C@@H](N)CCCNC(=N)N)C(=O)O` [Example 2, Arg-Pro-Pro-Gly-Phe-Ser-DThi-Phe-Arg] (H-RPPGFS[d2Thi]FR-OH) came in with a pA2/GPI of 4.6.

`N=C(N)NCCC[C@H](NC(=O)[C@H](Cc1ccccc1)NC(=O)[C@@H](Cc1ccccc1)NC(=O)[C@@H](Cc1ccccc1)NC(=O)[C@H](Cc1ccccc1)NC(=O)CNC(=O)[C@@H]1CCCN1C(=O)[C@@H]1CCCN1C(=O)[C@@H](N)CCCNC(=N)N)C(=O)O` [Example 4, Arg-Pro-Pro-Gly-Phe-DPhe-DPhe-Phe-Arg] (H-RPPGF[dF][dF]FR-OH) came in with a pA2/GPI of 5.2.

`N=C(N)NCCC[C@H](NC(=O)[C@H](Cc1cccs1)NC(=O)[C@@H](Cc1cccs1)NC(=O)[C@H](CO)NC(=O)[C@H](Cc1cccs1)NC(=O)CNC(=O)[C@@H]1CCCN1C(=O)[C@@H]1CCCN1C(=O)[C@@H](N)CCCNC(=N)N)C(=O)O` [Example 7, Arg-Pro-Pro-Gly-Thi-Ser-DThi-Thi-Arg] (H-RPPG[2Thi]S[d2Thi][2Thi]R-OH) had a pA2/GPI of 5.8.

`N=C(N)NCCC[C@H](NC(=O)[C@H](Cc1ccccc1)NC(=O)[C@@H](Cc1ccccc1)NC(=O)[C@H](CO)NC(=O)[C@H](Cc1ccccc1)NC(=O)CNC(=O)[C@@H]1CCCN1C(=O)[C@@H]1CCCN1C(=O)[C@H](CCCNC(=N)N)NC(=O)[C@H](CCCCN)NC(=O)[C@@H](N)CCCCN)C(=O)O` [Example 13, Lys-Lys-Arg-Pro-Pro-Gly-Phe-Ser-DPhe-Phe-Arg] (H-KKRPPGFS[dF]FR-OH): the pA2/GPI is given as 5.1.

Take `N=C(N)NCCC[C@H](NC(=O)[C@H](Cc1cccs1)NC(=O)[C@@H](Cc1ccccc1)NC(=O)[C@H](CO)NC(=O)[C@H](Cc1cccs1)NC(=O)CNC(=O)[C@@H]1CCCN1C(=O)[C@@H]1CCCN1C(=O)[C@H](CCCNC(=N)N)NC(=O)[C@H](CCCCN)NC(=O)[C@@H](N)CCCCN)C(=O)O` [Example 14, Lys-Lys-Arg-Pro-Pro-Gly-Thi-Ser-DPhe-Thi-Arg] (H-KKRPPG[2Thi]S[dF][2Thi]R-OH): the pA2/GPI is 5.3.

As to `N=C(N)NCCC[C@H](NC(=O)[C@H](Cc1cccs1)NC(=O)[C@@H](Cc1ccccc1)NC(=O)[C@H](CO)NC(=O)[C@H](Cc1cccs1)NC(=O)CNC(=O)[C@@H]1C[C@@H](O)CN1C(=O)[C@@H]1CCCN1C(=O)[C@@H](N)CCCNC(=N)N)C(=O)O` [Example 20, Arg-Pro-Hyp-Gly-Thi-Ser-DPhe-Thi-Arg] (H-RP[Hyp]G[2Thi]S[dF][2Thi]R-OH), the pA2/GPI was 4.7.
